According to EP0703904B1, “PYRIMIDINE CYANOGUANIDINES AS K-CHANNEL BLOCKERS” (priority 1993, dated 1994):

How the values were obtained:
RMA K^+ Channel = RMA K^+ Channel (Oryctolagus cuniculus, UniProt P82451+Q8WMQ7); experiment: Inhibition of pinacidil-induced relaxation of norepinephrine-contracted isolated rabbit mesenteric artery (RMA) rings; format: cell-based; settings: inhibitor 5 µM; pinacidil 1 µM; norepinephrine 5 µM contracted rings; mean ± sem; relaxation at 15 minutes versus control; number of rings in brackets; read-out: RMA K^+ Channel Antagonism % I at 5 µM
Chain of RMA K^+ Channel (P82451 whole entry): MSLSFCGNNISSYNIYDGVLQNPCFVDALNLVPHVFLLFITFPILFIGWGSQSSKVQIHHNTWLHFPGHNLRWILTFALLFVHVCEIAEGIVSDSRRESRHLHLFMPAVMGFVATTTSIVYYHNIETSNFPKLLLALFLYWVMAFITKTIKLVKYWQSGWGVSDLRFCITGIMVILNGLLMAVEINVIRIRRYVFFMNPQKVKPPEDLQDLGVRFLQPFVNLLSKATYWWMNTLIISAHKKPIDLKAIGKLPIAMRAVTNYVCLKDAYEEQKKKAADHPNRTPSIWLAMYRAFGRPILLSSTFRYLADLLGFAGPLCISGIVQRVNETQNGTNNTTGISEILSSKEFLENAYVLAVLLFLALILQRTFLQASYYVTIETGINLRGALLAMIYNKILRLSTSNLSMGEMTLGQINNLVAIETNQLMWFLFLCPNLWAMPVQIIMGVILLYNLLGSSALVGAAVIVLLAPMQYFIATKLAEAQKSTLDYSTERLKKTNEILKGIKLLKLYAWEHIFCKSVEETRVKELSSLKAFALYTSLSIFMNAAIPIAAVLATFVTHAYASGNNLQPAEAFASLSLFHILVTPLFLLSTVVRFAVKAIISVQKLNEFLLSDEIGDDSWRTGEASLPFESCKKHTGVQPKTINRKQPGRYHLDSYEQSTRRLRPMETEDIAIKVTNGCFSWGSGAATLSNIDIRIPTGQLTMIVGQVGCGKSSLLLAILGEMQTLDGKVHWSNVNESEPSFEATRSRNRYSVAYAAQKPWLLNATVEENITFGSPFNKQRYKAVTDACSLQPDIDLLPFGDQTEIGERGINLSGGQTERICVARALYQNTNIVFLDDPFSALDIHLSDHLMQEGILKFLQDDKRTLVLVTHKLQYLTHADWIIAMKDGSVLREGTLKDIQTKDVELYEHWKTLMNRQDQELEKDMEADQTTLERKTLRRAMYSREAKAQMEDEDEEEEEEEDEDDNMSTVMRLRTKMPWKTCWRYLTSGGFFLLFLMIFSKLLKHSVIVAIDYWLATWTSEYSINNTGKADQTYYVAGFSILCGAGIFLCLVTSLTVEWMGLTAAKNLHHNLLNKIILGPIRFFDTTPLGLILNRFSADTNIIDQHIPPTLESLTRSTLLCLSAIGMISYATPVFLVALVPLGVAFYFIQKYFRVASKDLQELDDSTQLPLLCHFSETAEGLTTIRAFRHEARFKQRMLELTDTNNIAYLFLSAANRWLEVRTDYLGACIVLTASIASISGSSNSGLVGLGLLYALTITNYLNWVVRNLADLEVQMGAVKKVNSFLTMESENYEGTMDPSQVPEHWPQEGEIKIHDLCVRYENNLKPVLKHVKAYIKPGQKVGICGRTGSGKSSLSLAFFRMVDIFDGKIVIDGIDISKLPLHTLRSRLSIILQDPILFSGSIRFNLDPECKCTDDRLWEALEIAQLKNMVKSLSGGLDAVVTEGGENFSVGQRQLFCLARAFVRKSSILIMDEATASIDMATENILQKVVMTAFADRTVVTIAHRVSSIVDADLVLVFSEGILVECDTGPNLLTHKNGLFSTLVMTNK
Chain of RMA K^+ Channel (Q8WMQ7 1-424): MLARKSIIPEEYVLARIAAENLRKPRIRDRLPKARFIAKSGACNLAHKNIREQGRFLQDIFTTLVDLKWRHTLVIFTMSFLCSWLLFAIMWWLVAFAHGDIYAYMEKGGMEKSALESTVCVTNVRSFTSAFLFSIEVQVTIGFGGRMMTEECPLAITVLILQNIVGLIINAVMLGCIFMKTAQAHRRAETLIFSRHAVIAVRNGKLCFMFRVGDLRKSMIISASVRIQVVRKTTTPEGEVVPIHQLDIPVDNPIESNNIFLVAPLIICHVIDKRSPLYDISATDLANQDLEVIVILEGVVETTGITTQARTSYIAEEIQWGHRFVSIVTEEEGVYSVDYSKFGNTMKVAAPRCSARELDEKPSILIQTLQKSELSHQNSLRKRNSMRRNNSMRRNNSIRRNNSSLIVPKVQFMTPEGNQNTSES
Protocol: The results for potassium channel blocking were obtained by using isolated rabbit mesenteric artery (RMA) procedures. Norepinephrine (5 µM) was used to contract the RMA rings twice, with an hour separating the two contractions. During this hour the tissues equilibrated in physiological salt solution at a resting tension of 1 gram. Upon the plateau of the second contraction 1 µM pinacidil was added to all tissues and the resulting relaxation time course was studied for thirty minutes. […] By studying the ability of the test compounds to inhibit this pinacidil-induced relaxation, the degree of potassium antagonism could be determined. The compounds were applied to the tissues for one hour between the two contractions and the pinacidil-induced relaxation was studied in the continuing presence of the compounds. Thus, the total time of pretreatment with the test compound was 75 minutes before the addition of pinacidil. […] The compounds were tested at 5 µM. The inhibitory effect of a compound was measured as percent inhibition of pinacidil relaxation at 15 minutes in comparison with the control.

[1] = test system: female Harlan Sprague-Dawley rats; experiment: Diuretic screen in rats: urinary Na^+ excretion; format: in vivo
Protocol: The diuretic activity was determined in female Harlan Sprague-Dawley rats weighing 200 to 230 grams that were fasted 15 hours overnight, and then were deprived of both food and water for an additional hour prior to dosing. […] It approximates the area under the dose response curve. The vehicle was 20% dimethylacetamide (DMA; v/v) in a pH 7.4 phosphate buffer (0.58% N2HPO4 and 0.13% NaH2PO4·H2O). Sufficient drug was suspended in 1 to 2 ml of this vehicle to deliver doses of 1.0 to 30 mg/kg in a volume of 0.5 ml (2-4 rats/dose). At least 2 vehicle control rats, and, for most tests, 2 standard diuretic treated rats were included in each experiment. Standards used as comparators included the K^+ retaining diuretic amiloride and tie K^+ wasting diuretics furosemide, hydrochlorothiazide and metolazone.
Following their IP doses, the rats' urinary bladders were gently compressed to eliminate all pretreatment urine, and two identically treated rats were placed in a stainless steel metabolism cage equipped with a graduated test tube to collect voided urine. At 2 and 5 hours post treatment, the rats' bladders were again compressed, the volume of urine excreted by the pair of rats was recorded, and aliquots of urine were retained for analysis of Na^+ and K^+ concentrations with a NOVA-13 selective ion analyzer. Following the 5 hour urine collection, the rats were returned to their stock cages, and at least 1 week of recovery was allowed between a maximum of 3 diuretic tests.
The electrolyte concentrations detected in these urine samples were manually mulliplied by their respective volumes to determine total milliequivalent (mEq) excretion of Na^+ and K^+ per pair of rats, and the results obtained with multiple racks per drug treatment were averaged. Increases in urinary Na^+ excretion of 50% or more above the pooled control tests were regarded as reflecting activity.

[2] = net increase above control in urinary Na^+ excretion over 5 hours divided by total of the three drug doses, administered IP

inhibition at 5 µM (RMA K^+ Channel) | Compound | 5 h Net Natriuretic Efficacy (µEq Na^+/mg/kg) ([1]; antidiuresis seen with 5 mg/kg oral dosage (footnote d)) | 5 h Net Natriuretic Efficacy (µEq Na^+/mg/kg) [1, 2]
0% | CC(N/C(=N\C#N)Nc1ccncc1)C(C)(C)C (centres unmarked) [Pinacidil] | -60^d µEq Na^+/mg/kg | –
0% | N#CN=C(NCC(c1ccccc1)c1ccccc1)Nc1cccnc1 [Control] | – | 0.0 µEq Na^+/mg/kg
81.7 ± 4.4% | C[C@@H](NC(=NC#N)Nc1cncnc1)c1ccccc1 [Example 1, (R)-N"-Cyano-N-(5-pyrimidyl)-N'-(1-phenyl)ethylguanidine] | – | 13.2 µEq Na^+/mg/kg
97% | N#CN=C(Nc1cnc(N)nc1)NC1(c2ccccc2)CCC1 [Example 2, N-(2-Amiro-5-pyrimidyl)N"-cyano-N'-(1-phenyl)cyclobutylguanidine] | – | 43 µEq Na^+/mg/kg
